# Results reported in patent publication US20080175935A1, “Method to Treat Skin Conditions with Narcissus Tazetta Bulb Extract” (NuSkin International, Inc., priority 2004, published 2008).
# “Also recorded” adds a separate entry of the source.
# Tests used:
# arNOX [1] = assay: arNOX assay: ferricytochrome c reduction (superoxide production) in sera; assay type: biochemical, human; settings: for serum activity (cytochrome c reduction) in response to added reagent: sera of aged individuals; for oscillating activity in sera of aged individuals: FIG. 2G (SOD), FIG. 2H (coenzyme Q); for amount at which inhibition of age-related cytochrome c reduction reaches a plateau: sera; for further inhibition of ferric cytochrome c reduction when added after maximal inhibition by the other agent: serum, SOD 30 units and coenzyme Q 450 μg added sequentially, 300 sec; for inhibition of ferric cytochrome c reduction activity: untreated serum samples; for Inhibition by superoxide dismutase: sera from aged individuals; for Superoxide production (reduction of ferricytochrome c), with superoxide dismutase: sera of aged (80-98 y) individuals, n = 10
# Text: (§1) Reduction of ferric cytochrome c by superoxide was employed as a standard measure of superoxide formation (Mayo, L. A. and Cumutte, J. (1990) Meth. Enzyme. 186, 567-575. 7. Butler, J, Koppenol, W. H. and Margollash, E. (1982) J. Biol. Chem. 257, 10747).
# Assays of ferric cytochrome c reduction in sera compared 53 samples from young (20 to 40 y) and 65 samples from aged (80 to 100) individuals. […]
# (§2) Measurement of arNOX activity based on ferricytochrome c reduction as a measure of superoxide production were taken. The rate of reduction of ferricytochrome c was determined from the increase in absorbance at 550 nm with 540 nm as reference. This is a widely accepted method when coupled to superoxide dismutase inhibition for the measurement of superoxide generation. The assay consists of 150 μl (2 mg/ml) of oxidized ferricytochrome c solution and 150 μl serum or 40 μl buffy coats in PBSG buffer (8.06 g NaCl, 0.2 g KCl, 0.18 g Na2HPO4, 0.26 g KH2PO4, 0.13 g CaCl2, 0.1 g MgCl2, 1.35 g glucose dissolved in 1000 ml deionized water, adjusted to pH 7.4, filtered and stored at 4° C.). Rates were determined using a SLM Aminco DW-2000 spectrophotometer (Milton Roy, Rochester, N.Y., USA) in the dual wave length mode of operation with continuous measurements over 1 min every 1.5 min. After 45 min, test compound was added and the reaction was continued for 45 min. A millimolar extinction coefficient of 19.1 cm^−1 was used for reduced ferricytochrome c. (D. M. Morré, F. Guo and D. J. Morré, 2003, Mol. Cell. Biochem. 254: […]).
# arNOX [2] = assay: arNOX assay: ferricytochrome c reduction (superoxide production) by buffy coats; assay type: cell-based, human; settings: for arNOX inhibition, activity at a dilution of 1:50: dilution 1:50 (solids 2 mM), buffy coats from a person; for arNOX inhibition, activity at a dilution of 1:500: dilution 1:500; for arNOX inhibition, activity at a dilution of 1:500 / Rate of reduction of ferricytochrome c, +100 μM Q10: buffy coats; for oscillating activity of buffy coats and sera of aged individuals: FIG. 2, SOD 60 units or coenzyme Q 450 μg added after 45 min, 70-100 y; for Rate of reduction of ferricytochrome c, +100 μM Q10: mean ± SD, negative rates statistically zero
# Experimental: as §1, with “10747). If superoxide dismutase was added to remove the superoxide as it was generated, the reduction of ferric cytochrome c was prevented to confirm that ferric cytochrome c reduction in the assay was due to superoxide.” for “10747).”
# Buffy coats were pooled from aged individuals (70-100 y) and the reduction of ferric cytochrome c was observed (FIG. 2) with an oscillating activity. […] This oscillatory reduction of cytochrome c was absent from buffy coat fractions from younger (20-40 y) individuals (FIGS. 2A and 2B). […] The rate of coenzyme Q inhibited ferric cytochrome c reduction was 7-fold greater in buffy coat fractions of 90-94 y individuals as compared to 80-89 y individuals (Table 1). Buffy coats of less than 65 y individuals lacked the activity.
# The compounds listed above in Table 4 were tested initially in the standard arNOX assay at a dilution of 1:50. Solids were prepared in water at an initial concentration of approximately 100 mM and then also tested at a dilution of 1:50, i.e., 2 mM. All compounds were evaluated using human buffy coats prepared from a person. Several compounds were evaluated with sera from aged patients as follow: IBR-DORMIN® Narcissus tazetta bulb extract (person), IBR-TOM® aqueous serum of tomato, available from Israeli Biotechnology Research Ltd. Corporation, Tel Aviv, Israel, (person), L-carnosine (person, person), L-ERGO® synthetically derived 1-ergothioneine, available from OXIS Health Products, Inc., Portland, Oreg. (person). Serum and buffy coats gave consistent results. Compounds active at 1:50 dilutions were reassayed with buffy coats at a dilution of 1:500 and compounds active at 1:500 were reassayed with buffy coats at a dilution of 1:5000.
# Details of the assay protocol are as follow. Buffy coats, a mixture of lymphocytes and platelets, were obtained from a commercial supplier. The blood samples were maintained at 4° C. prior to collection and assay. Ca. 10^7 cells were added to each assay. Cell numbers were determined using a hemocytometer.
# as §2
# [3] = tested on: NADH cytochrome c reductase; assay: NADH cytochrome c reductase of pig liver microsomes; assay type: biochemical
# Text: (§3) However, the NADH-stimulated activity was about 4 nmoles/min/ml of sera for sera of both young and aged individuals. The aging-specific increment of ca. 2 nmoles/min/mg protein was observed both in the presence or absence of NADH.
# [4] = tested on: NADH cytochrome c reductase; assay: NADH-cytochrome c reductase activity in serum; assay type: biochemical, human; settings: serum of either young or aged individuals
# Text: as §3
molecule,measurement,setting,value
N[C@@H](CCC(=O)N[C@@H](CS)C(=O)NCC(=O)O)C(=O)O [GSH],serum activity (cytochrome c reduction) in response to added reagent,arNOX [1],neither stimulates nor inhibits
C[N+](C)(C)[C@@H](Cc1c[nH]c(=S)[nH]1)C(=O)[O-] [L-Ergothioneine],"arNOX inhibition, activity at a dilution of 1:50",arNOX [2],mixed results
same,"arNOX inhibition, activity at a dilution of 1:500",arNOX [2],inactive
"NCCC(=O)N[C@@H](Cc1cnc[nH]1)C(=O)O [L-carnosine, L-Carnosine]",effect on the arNOX activities of a serum sample,"arNOX [1]; one experiment, serum sample containing 3 arNOX activities","inhibited one arNOX, stimulated a second arNOX and was without effect on a third"
Cc1cc(-c2ccccc2)c2ccc3c(-c4ccccc4)cc(C)nc3c2n1 [bathocuproene],serum activity (cytochrome c reduction) in response to added reagent,arNOX [1],unaffected
Cc1cc(-c2ccc(S(=O)(=O)O)cc2)c2ccc3c(-c4ccc(S(=O)(=O)O)cc4)cc(C)nc3c2n1 [bathocuproenedisulforiate],serum activity (cytochrome c reduction) in response to added reagent,arNOX [1],unaffected
COc1cc(CNC(=O)CCCC/C=C/C(C)C)ccc1O [capsaicin],response of arNOX to the drug,arNOX [1],does not respond
"COC1=C(OC)C(=O)C(C/C=C(\C)CC/C=C(\C)CC/C=C(\C)CC/C=C(\C)CC/C=C(\C)CC/C=C(\C)CC/C=C(\C)CC/C=C(\C)CC/C=C(\C)CCC=C(C)C)=C(C)C1=O [coenzyme Q, ubiquinone-10]",oscillating activity in sera of aged individuals,arNOX [1],eliminated; also recorded: largely blocked
same,amount at which inhibition of age-related cytochrome c reduction reaches a plateau,arNOX [1]; FIG. 4,about 450 μg
same,further inhibition of ferric cytochrome c reduction when added after maximal inhibition by the other agent,arNOX [1],no further inhibition
same,inhibition of ferric cytochrome c reduction activity,arNOX [1]; 300 μg/ml,40%
same,activity of authentic NADH cytochrome c reductase of pig liver microsomes,[3],did not significantly inhibit
same,oscillating activity of buffy coats and sera of aged individuals,arNOX [2],reduced to basal levels
same,oscillating reduction of ferric cytochrome c,"arNOX [2]; buffy coats pooled from aged individuals (70-100 y), 100 μM coenzyme Q (FIG. 2D)",inhibited completely
same,EC50,"arNOX [2]; buffy coats pooled from aged individuals (70-100 y), read-out: EC50 for inhibition of oscillating reduction of ferric cytochrome c",20 µM
same,"Rate of reduction of ferricytochrome c, +100 μM Q10",arNOX [2]; group 80-89 years,−0.03 ± 0.02 nmoles min^−1 10^7 cells^−1
same,"Rate of reduction of ferricytochrome c, +100 μM Q10",arNOX [2]; group 90-94 years,−0.07 ± 0.07 nmoles min^−1 10^7 cells^−1
same,activity of NADH cytochrome c reductase in serum,[4],Neither SOD nor coenzyme Q inhibited
[Cu] [copper],serum activity (cytochrome c reduction) in response to added reagent,arNOX [1],did not enhance the activity
OO [hydrogen peroxide],serum activity after oxidation of protein SH,arNOX [1]; dilute (0.01%) hydrogen peroxide followed by catalase,inactive
"COC(=O)c1ccc(O)cc1 [methylparaben, Methylparaben]",effect on the two distinct arNOX activities of the buffy coats,arNOX [2]; buffy coats containing two distinct arNOX activities,inhibited one and had no effect on the other
same,"arNOX inhibition, activity at a dilution of 1:50",arNOX [2],active
same,"arNOX inhibition, activity at a dilution of 1:500",arNOX [2],inactive
O=C(O)c1cc[c]([Hg][Cl])cc1 [p-chloromercuribenzoate],serum activity (cytochrome c reduction) in response to added reagent,arNOX [1],inhibited
"CCCOC(=O)c1ccc(O)cc1 [propylparaben, Propylparaben]","arNOX inhibition, activity at a dilution of 1:50",arNOX [2],active
same,"arNOX inhibition, activity at a dilution of 1:500",arNOX [2],inactive
(−)-epigallocatechin gallate,response of arNOX to the drug,arNOX [1],does not respond
Catalase,serum activity (cytochrome c reduction) in response to added reagent,arNOX [1],without effect
superoxide dismutase,oscillating activity in sera of aged individuals,arNOX [1]; listed as SOD,eliminated; also recorded: completely inhibited
same,Inhibition by superoxide dismutase,arNOX [1]; before proteinase K digestion,40%
same,Inhibition by superoxide dismutase,arNOX [1]; following proteinase K digestion,60%
same,"Superoxide production (reduction of ferricytochrome c), with superoxide dismutase",arNOX [1]; after proteinase K,0.22 ± 0.1 Nmoles/min/mi/sera
same,"Superoxide production (reduction of ferricytochrome c), with superoxide dismutase",arNOX [1]; no proteinase K,0.42 ± 0.1 Nmoles/min/mi/sera
same,amount at which inhibition of age-related cytochrome c reduction reaches a plateau,arNOX [1]; FIG. 3,45 units
same,further inhibition of ferric cytochrome c reduction when added after maximal inhibition by the other agent,arNOX [1],no further inhibition
same,inhibition of ferric cytochrome c reduction activity,arNOX [1]; 30 units/ml,40±10%
same,oscillating activity of buffy coats and sera of aged individuals,arNOX [2],reduced to basal levels
same,oscillating reduction of ferric cytochrome c,"arNOX [2]; buffy coats pooled from aged individuals (70-100 y), SOD added (FIG. 2C)",inhibited completely
same,activity of NADH cytochrome c reductase in serum,[4],Neither SOD nor coenzyme Q inhibited
